Measurements reported in patent publication US6653529B2, “Use of the maize X112 mutant ahas 2 gene and imidazolinone herbicides for selection of transgenic monocots, maize, rice and wheat plants resistant to the imidazolinone herbicides” (BASF Aktiengesellschaft, priority 2000, dated 2003).

How the values were obtained:
[1] = system: AHAS (acetohydroxyacid synthase) in extracts of Nortai, Line 26 and Line 29; experiment: In vitro AHAS activity assay; format: biochemical, rice; conditions: a significant portion of the enzyme activity; compared with normal enzyme from Nortai; FIG. 2
Protocol: Previously published procedures were used for the extraction and in vitro assay for AHAS activity (Singh et al. 1988). Lower portions of the shoots were used as the source of plant tissue for the assay. The desalted crude extracts were used for the in vitro enzyme assays. Acetolactate produced by the enzyme was converted to acetoin, which was measured by the Westerfield assay system.
In vitro AHAS assays were performed to understand the basis of herbicide tolerance in the transgenic plants. Previously published procedure was used for the extraction and in vitro assay for AHAS activity (Singh et al. 1988). The lower portions of the shoots were used as the source of plant tissue for the assay. The desalted crude extracts were used for the in vitro enzyme assays. Acetolactate produced by the enzyme was converted to acetoin, which was measured by the Westerfield assay system (Westerfield 1945). The specific activity of AHAS was about 30% higher in Line 26 (67 nmoles/mg protein/h) and Line 29 (64 nmoles/mg protein/h) compared to the activity in Nortai (Nt) (50 nmoles/mg protein/h).

[2] = system: rice plants (transgenic Lines 26 and 29; Nt control); experiment: Greenhouse herbicide tests on rice; format: in vivo; conditions: for average seed set in two transgenic lines: PURSUIT, RAPTOR, CADRE, SCEPTER at all rates tested, ARSENAL 1 to 2×; for rate at which growth of transgenic plants was slightly affected: post-emergence, fresh weight and visual observation
Text: We evaluated the response of transgenic rice to PURSUIT® imazethapyr application in the greenhouse. In this experiment, we included 2 transgenic lines and their untransformed counterpart (Nt). The transgenic lines, designated as Line 26 and 29, were T3 progeny derived from previously identified homozygous resistant transgenic plants containing the maize XI12 ahas2 gene driven by its own promoter. All seeds were pre-germinated in water for 2-3 days then grown in a planting mixture consisting of 1:1 soil and MetroMix 360 (The Scotts Company, Marysville, Ohio 43040) in 6-inch pots (2 seeds per pot) in the greenhouse and sprayed with PURSUIT® imazethapyr at 63, 125, or 250 g ai/ha. For post-emergence application, the plants were sprayed 15 days after seeding, at which time most plants had 3 leaves. For pre-emergence treatment, PURSUIT® imazethapyr was sprayed one day after seeding. Each treatment contained 20 plants and, and 3 replicates per treatment. One set of materials was not sprayed and used as control. The plants were grown in the greenhouse and harvested at maturity. The amount of PURSUIT® imazethapyr applied in this study (63, 125, or 250 g ai/ha) was close to 1, 2 or 4× field application rate for imi-resistant corn (refer to Table 3) since PURSUIT® imazethapyr is not currently labeled for use in rice fields. A custom designed belt sprayer was operated as described (Newhouse et al. 1992) for all herbicide applications. Five plants from each treatment were randomly chosen and individually measured for morphological traits. Means and standard deviations were calculated over three replications. Plant heights were measured from the base of the plant to the tip of the flag leaf 93 days after herbicide applications (DAH) and number of tillers per plant were counted 102-103 DAH. Data on number of panicles per plant and yield were collected after plants were harvested.
A total of 9 herbicides, 5 imidazolinones, two rice herbicides and ACCENT® (nicosulfuron) and CLASSIC® (clorimuron-ethyl) were applied in this study. Materials and methods were basically the same as described above, except that instead of 6″ pots, flats with 18 (3″×3″ per cell) cells were used, and 10-12 seeds were planted to one 3″×3″ cell. Ten plants were maintained in one cell in the post-emergence application. Each herbicide was sprayed at 4 different rates, 1, 2, 4, and 6×, as either pre or post-emergence applications with three replications per treatment. The name and amount of herbicide applied in this experiment and information relevant to their commercial applications are listed in Table 3. For simplicity and convenience, the lowest concentration used is referred as 1× rate, 2, 4 and 6× rates can be calculated as multiples of 1×.
To monitor plant response to various herbicides, data on fresh weight was collected. For pre-emergence applications, all plants from one cell were harvested 32 days after spraying (36-day old plants) and weighed. Twenty-nine days after herbicide application, 5 plants (44-day old plants) from each cell in the post-emergence application, were cut and weighed individually. Mean fresh weight for each treatment was calculated over three replications. The remaining 5 plants were grown in the greenhouse to maturity at which time, panicles of 3 plants were collected, and number of filled seeds and number of total kernels were counted to determine percentage of seed set.

[3] = system: transgenic rice Line 26 (maize XI12 ahas2 gene); experiment: Greenhouse spray test of rice with PURSUIT imazethapyr (pre- and post-emergence); format: in vivo
[4] = system: T1 corn plants of 1B1 (self and B73×1B1); experiment: Spray test of T1 progeny of transgenic corn plant 1B1; format: in vivo; conditions: 4× (250 ai g/ha) at 3-leaf stage; 6 self and 8 B73×1B1 T1 plants
Protocol: Transgenic corn plants were evaluated in the greenhouse for resistant levels to various imidazolinone herbicides and inheritance of the transgene. For corn, our protocol involved self- or cross-pollinating the transgenic plants for 2 to 3 generations and spraying T1 progeny plants to identify the resistant vs. susceptible plants. Detailed analysis for levels of herbicide resistance and the inheritance pattern. Identification of lines homozygous for the transgene is carried out in T2 generation with self-pollination and cross-pollination derived progeny plants. […] B73 and Mo17 lines were obtained USDA/ARS and Crop Sciences, UIUC, Urbana, Ill. 61801-4798. T1 plants were treated with 4×PURSUIT® imazethapyr (250 ai g/ha) at 3-leaf stage and rated as either resistant or susceptible to the herbicide. A total of 6 self and 8 B73×1B1 T1 plants were sprayed and all survived the herbicide treatments.

[5] = post-emergence, Rate 63 (g ai/ha)
[6] = post-emergence, Rate 125 (g ai/ha)
[7] = post-emergence, Rate 250 (g ai/ha)

## CC(C)C1(C)N=C(c2ncccc2C(=O)O)NC1=O (stereo not drawn) [ARSENAL ®, imazapyr]
[1]
  inhibition of AHAS activity from tolerant Line 26 and Line 29: insensitive to inhibition
[2]; 4× (96 g ai/ha) and 6× (144 g ai/ha)
  seed set in the two transgenic lines: ≤ 20%
[2]
  average seed set in two transgenic lines: about 85%
  rate at which growth of transgenic plants was slightly affected: 6 ×
[2]; higher rates
  effect on seed set of transgenic plants: severe sterility

## Cc1cnc(C2=NC(=O)C(C)(C(C)C)N2)c(C(=O)O)c1 (stereo not drawn) [CADRE ®, imazameth]
[2]
  average seed set in two transgenic lines: about 85%
  rate at which growth of transgenic plants was slightly affected: 6 ×

## CCc1cnc(C2=NC(C)(C(C)C)C(=O)N2)c(C(=O)O)c1 (stereo not drawn) [PURSUIT ®, imazethapyr]
[1]
  inhibition of AHAS activity from tolerant Line 26 and Line 29: insensitive to inhibition
[3]; [5]
  No. panicles/plant Mean: 25.3
  No. tillers/plant Mean: 27.1
  Plant height Mean: 110.1 cm
  Yield % 0×: 98 % 0×
  Yield Mean: 206.7 g/5 plants
[3]; [6]
  No. panicles/plant Mean: 22.8
  No. tillers/plant Mean: 25.6
  Plant height Mean: 108.1 cm
  Yield % 0×: 98 % 0×
  Yield Mean: 206.0 g/5 plants
[3]; [7]
  No. panicles/plant Mean: 21.7
  No. tillers/plant Mean: 25.4
  Plant height Mean: 110.3 cm
  Yield % 0×: 96 % 0×
  Yield Mean: 202.7 g/5 plants
[3]; pre-emergence, 63 g/ha
  No. panicles/plant Mean: 13.2
  No. tillers/plant Mean: 14.3
  Plant height Mean: 92.2 cm
  Yield % 0×: 101 % 0×
  Yield Mean: 155.3 g/5 plants
[3]; pre-emergence, 125 g/ha
  No. panicles/plant Mean: 14.4
  No. tillers/plant Mean: 15.3
  Plant height Mean: 89.7 cm
  Yield % 0×: 111 % 0×
  Yield Mean: 170.0 g/5 plants
[3]; pre-emergence, 250 g/ha
  No. panicles/plant Mean: 15.7
  No. tillers/plant Mean: 13.3
  Plant height Mean: 88.5 cm
  Yield % 0×: 109 % 0×
  Yield Mean: 167.0 g/5 plants
[2]
  average seed set in two transgenic lines: about 85%
  rate at which growth of transgenic plants was slightly affected: 6 ×
[2]; pre-emergence, 63, 125, 250 g/ha
  fate of transgenic plants of Lines 26 and 29: survived at all rates applied
[4]
  survival of T1 plants: all survived

## COCc1cnc(C2=NC(C)(C(C)C)C(=O)N2)c(C(=O)O)c1 (stereo not drawn) [RAPTOR ®, imazamox]
[2]
  average seed set in two transgenic lines: about 85%
  rate at which growth of transgenic plants was slightly affected: 6 ×
[2]; pre-emergence
  rate at which growth of both transgenic lines was affected: 6 ×
